Experimental data from patent publication US20060009431A1, “Nitrosated and nitrosylated compounds, compositions and methods use” (NitroMed, Inc., priority 2003, published 2006).
Like-named read-outs stand apart in the source and are kept apart here.

Tests used:
[1] = tested on: human coronary artery smooth muscle cells (CASMC); test: Vascular smooth muscle cell (SMC) antiproliferation assay; format: cell-based; conditions: viable cell count (Trypan Blue exclusion) ~68 hours after compound addition
Protocol: Suppression of Proliferation of Human Coronary Artery Smooth Muscle Cells (CASMC)
Vascular Smooth Muscle Cell (SMC) Antiproliferation Assay
The cells used in this assay were human coronary artery smooth muscle cells (CASMC) supplied by Clonetics Corp. (San Diego, Calif.). They were maintained in SmGM-2 growth medium (Clonetics Corp.), which consisted of modified MCDB 131 medium supplemented with 5% (v/v) fetal bovine serum (FBS), 0.5 ng/mL human recombinant epidermal growth factor (EGF), 2 ng/mL human recombinant fibroblast growth factor (FGF), 5 μg/mL bovine insulin, 50 μg/mL gentamicin sulfate, and 50 ng/mL amphotericin B under humidified 95% air-5% CO2 at 37° C. Cells were used for experiments up to about 17 cumulative population doublings (i.e., passage 9); at this age they still stained positive for smooth muscle actin, a protein marker for smooth muscle cells.
For the SMC antiproliferation assay, the cells were seeded at 3×10^4 viable cells in 2 mL of SmGM-2 medium per well of a Corning 24 tissue culture well plate (Corning, N.Y.). Stock solutions of the test compounds were prepared just prior to addition to the cells by dissolving in DMSO at a concentration of 1000 times the highest concentration to be assayed. This stock solution was diluted, as required, with DMSO to lower concentrations. On the same day the cells were seeded, but after they had attached and spread out (about 3 hours), each test compound in varying concentrations (2 μL of the diluted stock solutions) was added to four replicate wells (n=4) for each concentration. Control cultures received 2 μL of DMSO per well (n=4). On the following morning, the cultures were examined microscopically and their condition recorded. On the third day after test compound addition (˜68 hours), the cultures were examined microscopically again and the viable cells counted with an hemacytometer following trypsinization with 0.25% trypsin-1 mM EDTA. Trypan Blue dye exclusion was used to discriminate between viable and dead cells. The results were usually presented as % of the control viable cell count (mean±SEM) and were used to determine the IC50 for the inhibition of proliferation of vascular smooth muscle cells.

[2] = Homo sapiens, n=4, read-out: IC 50 for the inhibition of proliferation of vascular smooth muscle cells, Nitrosated and/or Nitrosylated Compound
[3] = n=4, read-out: IC 50 for the inhibition of proliferation of vascular smooth muscle cells, Non-nitrosated and/or Non-nitrosylated Compound

| melting point | Structure (SMILES) | other results |
| --- | --- | --- |
| 50 to 52 °C | C[C@]12CC[C@@H]3c4ccc(OC(=O)CCCC(=O)NCC5(SN=O)CCCCC5)cc4CC[C@H]3[C@@H]1CC[C@@H]2O | – |
| – | C[C@]12CC[C@@H]3c4ccc(OC(=O)CC5(SN=O)C6CC7CC(C6)CC5C7)cc4CC[C@H]3[C@@H]1CC[C@@H]2O (stereo partly drawn) [Example 18, (1S,11S,14S,15S,10R)-14-hydroxy-15-methyltetracyclo(8.7.0.0<2,7>0.0<11,15>)heptadeca-2,4,6-trien-5-yl 2-(2-(nitrosothio)adamantan-2-yl)acetate] | IC50 [1, 2]: 9 µM |
| – | C[C@]12CC[C@@H]3c4ccc(OC(=O)c5ccccc5)cc4CC[C@H]3[C@@H]1CC[C@@H]2OC(=O)CCC(=O)O[C@H]1CO[C@H]2[C@@H]1OC[C@H]2O[N+](=O)[O-] [Example 15, (1S,11S,14S,15S,10R)-15-Methyl-5-phenylcarbonyloxytetracyclo(8.7.0.0<2,7>0.0<11,15>)heptadeca-2,4,6-trien-14-yl(1S,2S,5S,6R)-6-(nitrooxy)-4,8-dioxabicyclo(3.3.0)oct-2-yl butane-1,4-dioate] | IC50 [1, 2]: > 80 µM |
| 143 to 145 °C | COc1ccc(C=C2c3ccccc3C(=NOCC(=O)NCC(C)(C)SN=O)c3ccccc32)cc1O [Example 51, 2-((10-((3-Hydroxy-4-methoxyphenyl)methylene)(9-anthrylidene))-azamethoxy)-N-(2-methyl-2-(nitrosothio)propyl)acetamide] | IC50 [1, 2]: 10 µM |
| – | CC1(C)CCC(CCOC(=O)CCC(=O)Oc2ccc3c(c2)CC[C@@H]2[C@@H]3CC[C@]3(C)[C@@H](O)CC[C@@H]23)(SN=O)CC1 [Example 28i, (1S,11S,14S,15S,10R)-14-Hydroxy-15-methyltetracyclo(8.7.0.0<2,7>0.0<11,15>)heptadeca-2,4,6-trien-5-yl 2-(4,4-dimethyl-1-(nitrosothio)cyclohexyl)ethyl butane-1,4-dioate] | IC50 [1, 2]: 13 µM |
| – | C[C@]12CC[C@@H]3c4ccc(OC(=O)CC5(S)C6CC7CC(C6)CC5C7)cc4CC[C@H]3[C@@H]1CC[C@@H]2OC(=O)C(F)(F)F (stereo partly drawn) [Example 17b, (1S,11S,14S,15S,10R)-15-methyl-5-(2-(2-sulfanyladamantan-2-yl)acetyloxy)tetracyclo(8.7.0.0<2,7>0.0<11,15>)heptadeca-2,4,6-trien-14-yl 2,2,2-trifluoroacetate] | IC 50 for the inhibition of proliferation of vascular smooth muscle cells, Non-nitrosated and/or Non-nitrosylated Compound ([1]; n=4): cytostatic |
| – | C[C@]12CC[C@@H]3c4ccc(OC(=O)CCC(=O)OCCC5(SN=O)C6CC7CC(C6)CC5C7)cc4CC[C@H]3[C@@H]1CC[C@@H]2O (stereo partly drawn) [Example 25, (1S,11S,14S,15S,10R)-14-Hydroxy-15-methyltetracyclo(8.7.0.0<2,7>0.0<11,15>)heptadeca-2,4,6-trien-5-yl 2-(2-(nitrosothio)adamantan-2-yl)ethyl butane-1,4-dioate] | IC50 [1, 2]: 4 µM |
| 75 to 77 °C | CC(C)(SN=O)C1COC(=O)N1CCOC(=O)CO/N=C1\C[C@@H]2[C@H](CC[C@]3(C)[C@@H](O)CC[C@@H]23)c2ccc(O)cc21 (stereo partly shown) | – |
| 140 to 143 °C | C[C@]12CC[C@@H]3c4ccc(OC(=O)c5ccccc5)cc4CC[C@H]3[C@@H]1CC[C@@H]2OC(=O)CCC(=O)OCCC1(S)C2CC3CC(C2)CC1C3 (stereo partly shown) | – |
| 140 °C (dec.) | C[C@]12CC[C@@H]3c4ccc(O)cc4/C(=N/OCC(=O)NCCO[N+](=O)[O-])C[C@H]3[C@@H]1CC[C@@H]2O | – |
| 40 °C | CC(C)(SN=O)C1COC(=O)N1CCOC(=O)COc1ccc2c(c1)CC[C@@H]1[C@@H]2CC[C@]2(C)[C@@H](O)CC[C@@H]12 (stereo partly shown) | – |
| 135 to 137 °C | COc1ccc(/C=C/C(=O)Nc2ccccc2C(=O)OCC(=O)NCC(C)(C)SN=O)cc1OC [Example 1, (N-(2-Methyl-2-(nitrosothio)propyl)carbamoyl)methyl 2-((2E)-3-(3,4-dimethoxyphenyl)prop-2-enoylamino)benzoate] | – |
| 63 to 65 °C | COc1ccc(C=C2c3ccccc3C(=O)c3ccccc32)cc1OCC(=O)N1CCC(CO[N+](=O)[O-])CC1 [Example 53, 2-(2-Methoxy-5-((10-oxo(9-anthrylidene))methyl)phenoxy)-1-(4-((nitrooxy)methyl)piperidyl)ethan-1-one] | – |
| – | C[C@]12CC[C@@H]3c4ccc(O)cc4C(=NOCC(=O)O)C[C@H]3[C@@H]1CC[C@@H]2O [Example 35a, 2-(((1S,11S,14S,15S,10R)-5,14-dihydroxy-15-methyltetracyclo(8.7.0.0<2,7>0.0<11-15>)heptadeca-2,4,6-trien-8-ylidene)azamethoxy)acetic acid, reference compound] | IC50 [1, 3]: > 80 µM |
| – | C[C@]12CC[C@@H]3c4ccc(OC(=O)CC5(S)C6CC7CC(C6)CC5C7)cc4CC[C@H]3[C@@H]1CC[C@@H]2O (stereo partly drawn) [Example 49, (1S,11S,14S,15S,10R)-14-hydroxy-15-methyltetracyclo(8.7.0.0<2,7>0.0<11,15>)heptadeca-2,4,6-trien-5-yl 2-(2-sulfanyladamantan-2-yl)acetate] | IC50 [1, 3]: 4 µM |
| 102 to 105 °C | C[C@]12CC[C@@H]3c4ccc(O)cc4/C(=N/OCC(=O)N4CCC(CCO[N+](=O)[O-])CC4)C[C@H]3[C@@H]1CC[C@@H]2O | – |
| 140 °C | COc1ccc(C=C2c3ccccc3C(=NO)c3ccccc32)cc1O [Example 52, 5-((10-(Hydroxyimino)(9-anthrylidene))methyl)-2-methoxyphenol] | IC50 [1, 3]: 0.6 µM |
| – | CC1(C)CCC(S)(CCOC(=O)CCC(=O)Oc2ccc3c(c2)CC[C@@H]2[C@@H]3CC[C@]3(C)[C@@H](O)CC[C@@H]23)CC1 [Example 28h, (1S,11S,14S,15S,10R)-14-hydroxy-15-methyltetracyclo(8.7.0.0<2,7>0.0<11,15>)heptadeca-2,4,6-trien-5-yl 2-(4,4-dimethyl-1-sulfanylcyclohexyl)ethyl butane-1,4-dioate] | IC50 [1, 3]: 14 µM |
| – | C[C@]12CC[C@@H]3c4ccc(OC(=O)CC5(SN=O)C6CC7CC(C6)CC5C7)cc4CC[C@H]3[C@@H]1CC[C@@H]2OC(=O)C(F)(F)F (stereo partly drawn) [Example 17c, (1S,11S,14S,15S,10R)-15-Methyl-5-(2-(2-(nitrosothio)adamantan-2-yl)acetyloxy)tetracyclo(8.7.0.0<2,7>0.0<11,15>)heptadeca-2,4,6-trien-14-yl 2,2,2-trifluoroacetate] | IC 50 for the inhibition of proliferation of vascular smooth muscle cells, Nitrosated and/or Nitrosylated Compound ([1]; n=4): Non-inhibitory |
| – | CN(CCO[N+](=O)[O-])C(=O)CO/N=C1\C[C@@H]2[C@H](CC[C@]3(C)[C@@H](O)CC[C@@H]23)c2ccc(O)cc21 [35 b] | IC 50 for the inhibition of proliferation of vascular smooth muscle cells, Nitrosated and/or Nitrosylated Compound ([1]; n=4): Non-inhibitory |
| 143 to 145 °C | C[C@]12CC[C@@H]3c4ccc(O)cc4/C(=N/OCC(=O)N4CCC(CO[N+](=O)[O-])CC4)C[C@H]3[C@@H]1CC[C@@H]2O | – |
| 146 to 149 °C | C[C@]12CC[C@@H]3c4ccc(OC(=O)COCC(=O)O[C@H]5CO[C@H]6[C@@H]5OC[C@H]6O[N+](=O)[O-])cc4CC[C@H]3[C@@H]1CC[C@@H]2O | – |

| Structure (SMILES) | melting point | other results |
| --- | --- | --- |
| C[C@]12CC[C@@H]3c4ccc(OC(=O)CCC(=O)O[C@H]5CO[C@H]6[C@@H]5OC[C@H]6O)cc4CC[C@H]3[C@@H]1CC[C@@H]2O [Example 58, (1S,11S,14S,15S,10R)-14-Hydroxy-15-Methyltetracyclo(8.7.0.0<2,7>0.0<11,15>)heptadeca-2,4,6-trien-5-yl(1S,2S,5R,6R)-6-hydroxy-4,8-dioxabicyclo(3.3.0)oct-2-yl butane-1,4-dioate] | 79 to 80 °C | IC50 [1, 3]: 12 µM |
| CN(CCO[N+](=O)[O-])C(=O)CO/N=C1\C[C@@H]2[C@H](CC[C@]3(C)[C@@H](O)CC[C@@H]23)c2ccc(O)cc21 | 125 to 127 °C (dec.) | – |
| CC(C)(CNC(=O)COc1ccc2c(c1)CC[C@@H]1[C@@H]2CC[C@]2(C)[C@@H](O)CC[C@@H]12)SN=O [Example 42, 2-((1S,11S,14S,15S,10R)-14-Hydroxy-15-methyltetracyclo(8.7.0.0<2,7>0.0<11,15>)heptadeca-2,4,6-trien-5-yloxy)-N-(2-methyl-2-(nitrosothio)propyl)acetamide] | 40 °C | IC50 [1, 2]: 9 µM |
| C[C@]12CC[C@@H]3c4ccc(OCC(=O)OCCC5(SN=O)C6CC7CC(C6)CC5C7)cc4CC[C@H]3[C@@H]1CC[C@@H]2O (stereo partly drawn) [Example 36b, 2-(2-(Nitrosothio)adamantan-2-yl)ethyl 2-((1S,11S,14S,15S,10R)-14-hydroxy-15-methyltetracyclo(8.7.0.0<2,7>0.0<11,15>)heptadeca-2,4,6-trien-5-yloxy)acetate] | 48 to 50 °C | IC50 [1, 2]: 5 µM |
